# Experimental data published in patent publication US6579696B1, “Polymyxin B conjugates” (priority 1992, dated 2003).
# Like-named read-outs stand apart in the source and are kept apart here. Bridge positions count the residues as written; N and C are the ends. Square brackets hold non-standard residues; d marks the D form. Peptide text beside a SMILES is read from it. * marks the point of attachment. Fluorescein(5-Mal) = O=C1OC2(c3ccc(O)cc3Oc3cc(O)ccc32)c2ccc(N3C(=O)CC(*)C3=O)cc21; Ileψ(thiazoline)Cys = CC[C@H](C)[C@H](N)C1=N[C@H](C(=O)*)CS1; Succinimide(1-Et,3-yl) = CCN1C(=O)CC(*)C1=O; dOrn = NCCC[C@@H](N)C(=O)O
# Columns and labels:
# S. aureus = assay: MIC testing against S. aureus; type: cell-based, Staph. aureus; details: for activity against S. aureus (in words): controls at concentrations used in the derivatization
# Method: 1.5 ml fractions were collected. The fractions in the void volume were pooled and sterile filtered. The activity of the conjugate was determined by standard MIC testing against S. aureus.
# [1] = tested on: J5 bacteria phagocytosed by J774A.1 mouse macrophage cell line; type: cell-based
# E. coli H16 [2] = tested on: E. coli H16
# E. coli = assay: MIC assays, summary of modified PMB's; details: relative to PMB
# Method: The MIC assays were performed as follows. Bacteria were grown overnight on TSB (Trypticase Soy Broth) plates at 37 degrees, and bacteria resuspended in sterile PBS to equal a #1 McFarland suspension. The suspension is diluted in TSB to a concentration of 5×10^5 organisms/ml. This diluted sample is the innoculum. Serial 2 fold dilutions of the conjugate to be tested are made in TSB (0.5 ml final volume of each dilution) in polystyrene tubes. 0.5 ml bacterial innoculum was added to each dilution tube. The conjugate concentrations are thus 2× the final concentration to be tested. Control tubes containing TSB alone, antimicrobial agent alone, and innoculum alone are also set. The tubes are vortexed and grown overnight in 37 degree incubator. […] Where two numbers are shown, the second number is the MIC of free PMB determined in the same experiment.
# E. coli H16 [3] = type: cell-based; details: for BDA: Table 42
# [4] = tested on: Staphylococcus epidermidis; assay: MIC and MBC; type: cell-based
# type I pili = type I pili (Escherichia coli, UniProt P08191)
# Sequence of type I pili (P08191 22-300): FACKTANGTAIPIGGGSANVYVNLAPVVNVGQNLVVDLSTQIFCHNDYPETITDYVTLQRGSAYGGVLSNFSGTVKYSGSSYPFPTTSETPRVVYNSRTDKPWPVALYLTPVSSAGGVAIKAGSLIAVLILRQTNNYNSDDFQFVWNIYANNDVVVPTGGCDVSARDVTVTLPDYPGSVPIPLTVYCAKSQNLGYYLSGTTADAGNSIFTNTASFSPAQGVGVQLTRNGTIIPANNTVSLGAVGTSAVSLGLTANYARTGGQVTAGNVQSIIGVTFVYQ
# Sequence of type I pili (P08190 24-167 partner): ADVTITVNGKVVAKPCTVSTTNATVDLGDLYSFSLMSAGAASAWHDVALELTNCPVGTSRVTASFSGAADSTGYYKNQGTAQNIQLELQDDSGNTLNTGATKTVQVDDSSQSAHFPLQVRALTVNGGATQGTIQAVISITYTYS
# Sequence of type I pili (P08189 23-176 partner limits assumed): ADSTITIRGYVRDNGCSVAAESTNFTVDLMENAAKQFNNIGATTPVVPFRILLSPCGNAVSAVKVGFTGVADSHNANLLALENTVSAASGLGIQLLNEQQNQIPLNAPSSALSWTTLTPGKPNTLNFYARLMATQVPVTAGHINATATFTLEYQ
# Sequence of type I pili (P04128 24-182 partner): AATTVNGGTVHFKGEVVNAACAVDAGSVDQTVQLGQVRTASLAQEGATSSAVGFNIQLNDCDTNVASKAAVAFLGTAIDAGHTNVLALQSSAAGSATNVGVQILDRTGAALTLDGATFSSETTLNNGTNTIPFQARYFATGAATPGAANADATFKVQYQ
# Salmonella 34576 = details: Table 43
# [5] = Table 40, first number of the cell
# [6] = concentration expressed as absorbance at 280 nm
molecule,measurement,setting,value
NCCO [ethanolamine],activity against S. aureus (in words),S. aureus,inactive
S-(Acetomidomethyl)cysteinyl PMB [PMB-Cys (ACM)],MIC,E. coli 0111:B4; [5],1.2 µg/mL
same,MIC,E. coli 0111:B4; Table 41,5 µg/mL
"CC1=C(C(=O)O)N2C(=O)[C@@H](NC(=O)[C@H](N)c3ccc(O)cc3)[C@H]2SC1 [native cefadroxil, cefadroxil]",MIC,S. aureus; [6],0.028 A280
OCCS [beta-mercaptoethanol],activity against S. aureus (in words),S. aureus,inactive
Lysyl S-Succinamidyl (Fluorescein) PMB [PMB-Lys-FL],MIC,E. coli 0111:B4; [5],1 µg/mL
Polymyxin B-fluoroscein [PMB-NHS-FL],loss of anti-bacterial activity relative to PMB,E. coli HB101,10-20 fold
same,MIC,E. coli HB101; Table 44,0.8 to 1 µg/mL
CC(C)C[C@H](NC(=O)[C@H](C)N)C(=O)N[C@@H](Cc1ccc(O)cc1)C(=O)N[C@@H](CCCCN)C(=O)N[C@@H](CCCCN)C(=O)N[C@@H](CC(C)C)C(=O)N[C@@H](CC(C)C)C(=O)N[C@@H](CCCCN)C(=O)N[C@@H](CCCCN)C(=O)N[C@@H](CC(C)C)C(=O)N[C@@H](CC(C)C)C(=O)N[C@@H](CCCCN)C(=O)N[C@@H](CO)C(=O)N[C@@H](C)C(=O)N[C@@H](CCCCN)C(=O)N[C@@H](CCCCN)C(=O)N[C@@H](CC(C)C)C(=O)NCC(=O)N[C@@H](CSC1CC(=O)N(c2ccc3c(c2)C(=O)OC32c3ccc(O)cc3Oc3cc(O)ccc32)C1=O)C(N)=O (stereo partly drawn) [C19G-Mal-FL] (H-ALYKKLLKKLLKSAKKLGC(Fluorescein(5-Mal))-NH2; N-terminus assumed),% Macrophage with phagocytosed bacteria,"[1]; Table 61 (repeat assay), 1×10^8 J5 bacteria opsonized, from 100 macrophage examined, conjugates 0.5 ug/ml, anti-avidin 1/400, anti-fluorescein antibody 14 ug/ml",8%
same,enhancement of phagocytosis (in words),[1]; with anti-fluorescein antibody,prevents the C19g-Mal-FL conjugate from enhancing bacterial phagocytosis
same,MIC,E. coli H16 [2],10 µg/mL
S-(Acetomidomethyl)-t-butoxycarbonylcysteinyl PMB [PMB-Boc-Cys (ACM)],MIC,E. coli 0111:B4; [5],6.0 µg/mL
same,MIC,E. coli 0111:B4; Table 41,5 µg/mL
PMB-S-Mercaptosuccinyl-succinimidyl-fluorescein [PMB-SAMSA-Mal-FL],MIC,E. coli 0111:B4; [5],10 µg/mL
same,MIC,E. coli 0111:B4; Table 44,4 to 20 µg/mL
Lysyl-PMB [PMB-Lys],antibiotic activity (in words),E. coli,Active
same,MIC,E. coli 0111:B4; [5],2.0 µg/mL
same,MIC,E. coli 0111:B4; Table 41,2 µg/mL
S-Acetylmercaptosuccinyl PMB [PMB-SAMSA],loss of anti-bacterial activity relative to PMB,E. coli HB101,10-30 fold
same,MIC,E. coli HB101; Table 41,0.5 to 3 µg/mL
same,MIC,E. coli 0111:B4; [5],3.1 µg/mL
same,MIC,E. coli 0111:B4; Table 41,3 µg/mL
Cysteinyl-PMB [PMB-Cys],antibiotic activity (in words),E. coli,Active
same,MIC,E. coli 0111:B4; [5],0.7 µg/mL
same,MIC,E. coli 0111:B4; Table 41,0.8 to 1 µg/mL
PMB-NHCOCH2SCOCH3 [PMB-SATA],antibiotic activity (in words),E. coli,Less Active
same,loss of anti-bacterial activity relative to PMB,E. coli HB101,about 10 fold
same,MIC,E. coli HB101; Table 41,0.6 µg/mL
"CC1(C)S[C@@H]2[C@H](NC(=O)[C@H](N)c3ccc(O)cc3)C(=O)N2[C@H]1C(=O)O [native amoxicillin, amoxicillin]",MIC,S. aureus,250 µg/mL
CC(=O)OCC1=C(C(=O)O)N2C(=O)[C@@H](N)[C@H]2SC1 [7-aminocephalosporanic acid],MIC,S. aureus; [6],3.7 A280
S-hydroxyethylthio-maleimidobenzoyl-N-aminocephalosporanic acid ester,MIC,S. aureus; [6],0.86 A280
Monoalanyl PMB [PMB-Ala],antibiotic activity (in words),E. coli,Active
same,MIC,E. coli 0111:B4; [5],0.7 µg/mL
same,MIC,E. coli 0111:B4; Table 41,0.8 to 2 µg/mL
t-butoxycarbonyl-alanine-polymyxin B [PMB-BOC-Ala],MIC,E. coli 0111:B4; Table 41,2 µg/mL
ala-leu-tyr-lys-lys-leu-leu-lys-lys-leu-leu-lys-ser-ala-lys-lys-leu-gly-cys-amide [C19G],lower activity than C18G,E. coli H16 [3],about 5 fold
same,BDA,E. coli H16 [3],25 to 50 µg/mL
"O=C(ON1C(=O)CC(S(=O)(=O)O)C1=O)c1cccc(N2C(=O)C=CC2=O)c1 (stereo not drawn) [Sulfo-MBS, m-Maleimidobenzoyl-N-hydroxysulfosuccinimide ester]",activity against S. aureus (in words),S. aureus,inactive
"α,ε-di-t-Butoxycarbonyl-lysyl-PMB [α,ε-di-t-butoxycarbonyl lysyl derivative]",antibiotic activity (in words),E. coli,significantly less active
α-Boc-ε{flourescein) thiocarbamoyl}-lysyl PMB [PMB-Boc-Lys-FL],MIC,E. coli 0111:B4; [5],12.5 µg/mL
CC[C@H](C)[C@H](N)C1=N[C@H](C(=O)N[C@@H](CC(C)C)C(=O)N[C@H](CCC(=O)O)C(=O)N[C@H](C(=O)N[C@H]2CCCCNC(=O)[C@H](CC(N)=O)NC(=O)[C@@H](CC(=O)O)NC(=O)[C@H](Cc3cnc[nH]3)NC(=O)[C@@H](Cc3ccccc3)NC(=O)[C@H]([C@@H](C)CC)NC(=O)[C@@H](CCCN)NC2=O)[C@@H](C)CC)CS1 [Bacitracin] ({Ileψ(thiazoline)Cys}-L[dE]IK[dOrn]I[dF]H[dD]N; lactam 4-C),MIC,[4]; Table 25,25 µg/mL
same,MBC,"[4]; Table 25, read-out: MBC",50 µg/mL
Imminothiolated PMB [PMB-Traut's],loss of anti-bacterial activity relative to PMB,E. coli HB101,40-80 fold
same,MIC,E. coli HB101; Table 41,4 µg/mL
"CC1(C)S[C@@H]2[C@H](N)C(=O)N2[C@H]1C(=O)O [native aminopenicillanic acid, 6-aminopenicillanic acid]",MIC,"S. aureus; Staphylococcus aureus, read-out: MIC",250 µg/mL
"O=C(Nc1ccc(O[C@H]2O[C@H](CO)[C@@H](O)[C@H](O)[C@@H]2O)cc1)c1ccccc1 [N-benzoyl derivative, 4-Benzamidophenyl-α-D-mannopyranoside]",activity relative to methyl α-mannopyranoside,type I pili,1000 fold
"CCN1C(=O)CC(SC[C@H](NC(=O)CNC(=O)[C@H](CC(C)C)NC(=O)[C@H](CCCCN)NC(=O)[C@H](CCCCN)NC(=O)[C@H](C)NC(=O)[C@H](CO)NC(=O)[C@H](CCCCN)NC(=O)[C@H](CC(C)C)NC(=O)[C@H](CC(C)C)NC(=O)[C@H](CCCCN)NC(=O)[C@H](CCCCN)NC(=O)[C@H](CC(C)C)NC(=O)[C@H](CC(C)C)NC(=O)[C@H](CCCCN)NC(=O)[C@H](CCCCN)NC(=O)[C@H](Cc2ccc(O)cc2)NC(=O)[C@H](CC(C)C)NC(=O)[C@H](C)N)C(N)=O)C1=O (stereo partly drawn) [C19G-NEM] (H-ALYKKLLKKLLKSAKKLGC(Succinimide(1-Et,3-yl))-NH2; N-terminus assumed)",MIC,E. coli 0111:B4; 0111:B4,6 µg/mL
same,BDA,E. coli H16 [3],2.5 to 5 µg/mL
same,MIC,Salmonella 34576,6 µg/mL
same,MIC,E. coli H16 [2],10 µg/mL
N[C@@H](Cc1ccccc1)C(=O)Nc1ccc(O[C@H]2O[C@H](CO)[C@@H](O)[C@H](O)[C@@H]2O)cc1 [4-(N-phenylalanyl)-aminophenyl-α-D-mannopyranoside],activity relative to methyl α-mannopyranoside,type I pili,approximately 1000 fold
S-hydroxyethylthio maleimidomethyl cyclohexane carboxyl-N-cefadroxil ester,MIC,S. aureus; [6],1.6 A280
"CC(C)C[C@H](NC(=O)[C@H](Cc1ccccc1)NC(=O)[C@H](CCCNC(=N)N)NC(=O)[C@H](CCCCN)NC(=O)[C@H](CCC(N)=O)NC(=O)[C@H](C)NC(=O)[C@H](CCCCN)NC(=O)[C@H](Cc1c[nH]c2ccccc12)NC(=O)[C@H](CCCCN)NC(=O)[C@@H](N)CS)C(=O)N[C@@H](CCCCN)C(=O)O [C90-99, cys-lys-trp-lys-ala-gln-lys-arg-phe-leu-lys, reference compound]",MIC,E. coli HB101; HB101,>75 µg/mL
same,MIC,E. coli 0111:B4; 0111:B4,>75 µg/mL
